Measured values published in the NIST ThermoML archive (doi:10.1021/je900691n).
Numbers after ± are expanded uncertainties.

Assay: xn = mol fraction of the nth substance listed
Details: Liquid, Pycnometric method

COC(=O)OC [dimethyl carbonate] + O=C=O
mass density [kg/m3]
Details | 308.15 K | 313.15 K
6160 kPa, x1 = 0.1484 | 926 ± 4 | –
6420 kPa, x1 = 0.118 | 904 ± 4 | –
6750 kPa, x1 = 0.086 | 864 ± 4 | –
6760 kPa, x1 = 0.1484 | 931 ± 4 | –
6780 kPa, x1 = 0.1484 | – | 905 ± 4
6900 kPa, x1 = 0.118 | 909 ± 4 | –
7020 kPa, x1 = 0.118 | – | 880 ± 4
7160 kPa, x1 = 0.0481 | 787 ± 4 | –
7260 kPa, x1 = 0.1484 | 936 ± 4 | –
7280 kPa, x1 = 0.1484 | – | 909 ± 4
7340 kPa, x1 = 0.086 | – | 834 ± 4
7500 kPa, x1 = 0.118 | – | 886 ± 4
7520 kPa, x1 = 0.0242 | 697 ± 4 | –
7620 kPa, x1 = 0.0481 | 800 ± 4 | –
7630 kPa, x1 = 0.0242 | 705 ± 4 | –
7680 kPa, x1 = 0.118 | 917 ± 4 | –
7730 kPa, x1 = 0.1484 | 939 ± 4 | –
7780 kPa, x1 = 0.0242 | 718 ± 4 | –
7780 kPa, x1 = 0.1484 | – | 914 ± 4
7850 kPa, x1 = 0.0481 | – | 740 ± 4
7940 kPa, x1 = 0.086 | 881 ± 4 | –
7990 kPa, x1 = 0.0242 | 731 ± 4 | –
8050 kPa, x1 = 0.0481 | – | 748 ± 4
8050 kPa, x1 = 0.118 | – | 893 ± 4
8200 kPa, x1 = 0.118 | 922 ± 4 | –
8220 kPa, x1 = 0.0242 | – | 606 ± 4
8230 kPa, x1 = 0.0242 | 744 ± 4 | –
8230 kPa, x1 = 0.0481 | 816 ± 4 | –
8250 kPa, x1 = 0.0242 | – | 613 ± 4
8250 kPa, x1 = 0.1484 | 943 ± 4 | –
8260 kPa, x1 = 0.0481 | – | 757 ± 4
8290 kPa, x1 = 0.0242 | – | 622 ± 4
8290 kPa, x1 = 0.1484 | – | 918 ± 4
8350 kPa, x1 = 0.086 | – | 852 ± 4
8380 kPa, x1 = 0.0242 | – | 636 ± 4
8480 kPa, x1 = 0.0242 | 755 ± 4 | –
8490 kPa, x1 = 0.0242 | – | 650 ± 4
8510 kPa, x1 = 0.0481 | – | 767 ± 4
8590 kPa, x1 = 0.0242 | – | 665 ± 4
8730 kPa, x1 = 0.086 | 890 ± 4 | –
8740 kPa, x1 = 0.0481 | 827 ± 4 | –
8760 kPa, x1 = 0.0242 | – | 681 ± 4
8760 kPa, x1 = 0.1484 | – | 922 ± 4
8780 kPa, x1 = 0.1484 | 947 ± 4 | –
8790 kPa, x1 = 0.086 | – | 859 ± 4
8870 kPa, x1 = 0.0242 | 770 ± 4 | –
8920 kPa, x1 = 0.0242 | – | 692 ± 4
8930 kPa, x1 = 0.0481 | – | 780 ± 4
9000 kPa, x1 = 0.118 | – | 903 ± 4
9030 kPa, x1 = 0.118 | 929 ± 4 | –
9110 kPa, x1 = 0.0242 | – | 705 ± 4
9180 kPa, x1 = 0.0242 | 780 ± 4 | –
9250 kPa, x1 = 0.0481 | 837 ± 4 | –
9250 kPa, x1 = 0.086 | – | 865 ± 4
9250 kPa, x1 = 0.1484 | – | 926 ± 4
9260 kPa, x1 = 0.1484 | 950 ± 4 | –
9420 kPa, x1 = 0.0242 | – | 721 ± 4
9480 kPa, x1 = 0.0481 | – | 795 ± 4
9630 kPa, x1 = 0.0242 | – | 731 ± 4
9630 kPa, x1 = 0.086 | 900 ± 4 | –
9640 kPa, x1 = 0.0242 | 792 ± 4 | –
9650 kPa, x1 = 0.118 | – | 910 ± 4
9670 kPa, x1 = 0.118 | 935 ± 4 | –
9690 kPa, x1 = 0.0481 | 844 ± 4 | –
9720 kPa, x1 = 0.086 | – | 871 ± 4
9740 kPa, x1 = 0.1484 | 953 ± 4 | –
9770 kPa, x1 = 0.1484 | – | 930 ± 4
9920 kPa, x1 = 0.0242 | 799 ± 4 | –
9960 kPa, x1 = 0.0242 | – | 744 ± 4
9960 kPa, x1 = 0.0481 | – | 807 ± 4
10120 kPa, x1 = 0.0481 | 852 ± 4 | –
10130 kPa, x1 = 0.086 | 905 ± 4 | 876 ± 4
10180 kPa, x1 = 0.0242 | 806 ± 4 | –
10230 kPa, x1 = 0.1484 | 956 ± 4 | –
10240 kPa, x1 = 0.1484 | – | 934 ± 4
10280 kPa, x1 = 0.0242 | – | 755 ± 4
10300 kPa, x1 = 0.118 | – | 916 ± 4
10420 kPa, x1 = 0.0481 | – | 816 ± 4
10530 kPa, x1 = 0.0481 | 858 ± 4 | –
10580 kPa, x1 = 0.0242 | – | 765 ± 4
10600 kPa, x1 = 0.0242 | 814 ± 4 | –
10600 kPa, x1 = 0.118 | 942 ± 4 | –
10740 kPa, x1 = 0.1484 | – | 937 ± 4
10770 kPa, x1 = 0.1484 | 960 ± 4 | –
10870 kPa, x1 = 0.086 | – | 885 ± 4
10930 kPa, x1 = 0.086 | 913 ± 4 | –
10980 kPa, x1 = 0.0242 | – | 775 ± 4
11010 kPa, x1 = 0.0242 | 822 ± 4 | –
11010 kPa, x1 = 0.0481 | – | 827 ± 4
11010 kPa, x1 = 0.118 | – | 922 ± 4
11080 kPa, x1 = 0.0481 | 865 ± 4 | –
11120 kPa, x1 = 0.086 | – | 888 ± 4
11180 kPa, x1 = 0.118 | 946 ± 4 | –
11230 kPa, x1 = 0.1484 | 962 ± 4 | –
11280 kPa, x1 = 0.1484 | – | 941 ± 4
11290 kPa, x1 = 0.0242 | 828 ± 4 | –
11340 kPa, x1 = 0.086 | 917 ± 4 | –
11400 kPa, x1 = 0.0242 | – | 785 ± 4
11430 kPa, x1 = 0.0481 | – | 834 ± 4
11500 kPa, x1 = 0.0481 | 871 ± 4 | –
11550 kPa, x1 = 0.118 | – | 927 ± 4
11710 kPa, x1 = 0.086 | – | 893 ± 4
11740 kPa, x1 = 0.0242 | – | 793 ± 4
11740 kPa, x1 = 0.1484 | 966 ± 4 | –
11750 kPa, x1 = 0.0242 | 836 ± 4 | –
11770 kPa, x1 = 0.1484 | – | 944 ± 4
11800 kPa, x1 = 0.086 | 921 ± 4 | –
11950 kPa, x1 = 0.0481 | – | 842 ± 4
12020 kPa, x1 = 0.0242 | 839 ± 4 | –
12030 kPa, x1 = 0.118 | – | 930 ± 4
12040 kPa, x1 = 0.0481 | 878 ± 4 | –
12080 kPa, x1 = 0.0242 | – | 801 ± 4
12130 kPa, x1 = 0.086 | – | 898 ± 4
12210 kPa, x1 = 0.086 | 924 ± 4 | –
12230 kPa, x1 = 0.1484 | 969 ± 4 | –
12300 kPa, x1 = 0.118 | 954 ± 4 | –
12330 kPa, x1 = 0.1484 | – | 948 ± 4
12420 kPa, x1 = 0.0242 | 846 ± 4 | –
12450 kPa, x1 = 0.0481 | – | 849 ± 4
12520 kPa, x1 = 0.0242 | – | 809 ± 4
12530 kPa, x1 = 0.0481 | 883 ± 4 | –
12700 kPa, x1 = 0.086 | – | 903 ± 4
12700 kPa, x1 = 0.118 | – | 935 ± 4
12740 kPa, x1 = 0.1484 | 971 ± 4 | –
12780 kPa, x1 = 0.0242 | 852 ± 4 | –
12850 kPa, x1 = 0.086 | 929 ± 4 | –
12970 kPa, x1 = 0.0481 | 888 ± 4 | –
13270 kPa, x1 = 0.1484 | 975 ± 4 | –
13350 kPa, x1 = 0.086 | 934 ± 4 | –
13660 kPa, x1 = 0.0481 | 895 ± 4 | –
13820 kPa, x1 = 0.1484 | 978 ± 4 | –
13850 kPa, x1 = 0.086 | 937 ± 4 | –
14140 kPa, x1 = 0.086 | 939 ± 4 | –
14270 kPa, x1 = 0.1484 | 980 ± 4 | –
14460 kPa, x1 = 0.0481 | 903 ± 4 | –
14760 kPa, x1 = 0.086 | 944 ± 4 | –
15030 kPa, x1 = 0.1484 | 984 ± 4 | –
15060 kPa, x1 = 0.068 | 946 ± 4 | –
15240 kPa, x1 = 0.0481 | 911 ± 4 | –
15490 kPa, x1 = 0.068 | 949 ± 4 | –
15690 kPa, x1 = 0.1484 | 987 ± 4 | –
16010 kPa, x1 = 0.068 | 953 ± 4 | –
16350 kPa, x1 = 0.1484 | 990 ± 4 | –
